Laboratory results as given in US20260055088A1, “HETEROCYCLIC COMPOUND, METHOD FOR PREPARING SAME, AND PHARMACEUTICAL USE THEREOF” (Jiangsu Hengrui Pharmaceuticals Co., Ltd., priority 2022, published 2026).

What was measured:
[1] = molecular target: Nav1.8 ion channel stably expressed on HEK293 cells (Homo sapiens (Human), UniProt Q9Y5Y9); experiment: Inhibitory activity against Nav1.8, manual patch clamp; assay type: cell-based; conditions: resting protocol (-80 mV to 10 mV), 1 μM TTX, read-out: IC50 for the inhibition of Nav1.8 channel activity
Text: The objective of the experiment was to investigate the effects of the compounds on the Nav1.8 ion channel in ex vivo experiments. The Nav1.8 ion channel is stably expressed on HEK293 cells. After the Nav1.8 current stabilized, the effects of the compounds on the Nav1.8 ion channel were obtained by comparing the magnitudes of the Nav1.8 currents before and after the compounds were applied.
• 1) A patch clamp amplifier: patch clamp PC-505B (WARNER instruments)/MultiClamp 700A (Axon instrument) • 2) A digital-to-analog converter: Digidata 1440A (Axon CNS)/Digidata 1550A (Axon instruments) • 3) A micromanipulator: MP-225 (SUTTER instrument) • 4) An inverted microscope: TL4 (Olympus) • 5) Glass micropipette puller: PC-10 (NARISHIGE) • 6) Microelectrode glass capillaries: B12024F (Wuhan VitalSense Scientific Instruments Co., Ltd.) • 7) Dimethyl sulfoxide (DMSO) D2650 (Sigma-Aldrich) • 8) TTX AF3014 (Affix Scientific)
The compounds for preparing the intracellular and extracellular fluids were purchased from Sigma (St. Louis, MO) except for the NaOH and KOH for the acid-base titrations. The extracellular fluid (mM) was: NaCl, 137; KCl, 4; CaCl2, 1.8; MgCl2, 1; HEPES, 10; glucose, 10; pH 7.4 (NaOH titration). The intracellular fluid (mM) was: aspartic acid, 140; MgCl2, 2; EGTA, 11; HEPES, 10; pH 7.2 (CsOH titration). All test and control compound solutions contained 1 μM TTX.
The test compounds were stored at a concentration of 9 mM in dimethyl sulfoxide (DMSO). On the testing day, the compounds were further dissolved in the extracellular fluid to prepare the required concentrations.
1) After the compounds were prepared into solutions with specified concentrations, the compound solutions were sequentially added to channels in ascending order according to their concentrations, and each channel was labeled.
2) A cell was transferred to the perfusion chamber. Positive pressure was applied inside the electrode, and the electrode tip was brought into contact with the cell. The three-way valve of the suction device was switched to the state where all three ways were open, and negative pressure was then applied to the electrode, allowing a high-resistance seal to form between the electrode and the cell. The application of negative pressure was continued to rupture the cell membrane, leading to the formation of a current pathway.
3) After the cell membrane rupture current stabilized, perfusion was performed with different concentrations in sequence. If the current remained stable for at least one minute, perfusion was performed with the next concentration.
4) The perfusion chamber was cleaned. The perfusion chamber was rinsed with the compound solutions in descending order according to their concentrations, with each concentration applied for 20 s. Finally, the perfusion chamber was rinsed with the extracellular fluid for 1 min.
The cell was clamped at −80 mV and then depolarized to 10 mV using a square wave lasting for 10 ms to obtain a Nav1.8 current. This procedure was repeated once every 5 seconds. The maximum current induced by the square wave was detected. After the current stabilized, perfusion was performed with the test compounds. After the reaction stabilized, the strength of the blocking was calculated.
The data were stored on a computer system and analyzed. Data acquisition and analysis were performed using pCLAMP 10 (Molecular Devices, Union City, CA), and the results were reviewed by a manager. “Current stabilized” means that the changes in current over time were within a limited range. The magnitude of the current after stabilization was used to calculate the effect of the compound at this […].
The inhibitory activity of the compounds of the present disclosure against Nav1.8 was determined through the above assay.

[2] = Pharmacokinetic evaluation in dogs (i.g.); assay type: in vivo; conditions: both sexes, dog, plasma, po, 2 mg/kg
Method: Dogs were used as test animals. After intragastric (i.g.) administration of the example compound to dogs, the plasma concentrations of the compound at different time points were determined by the LC/MS/MS method. The pharmacokinetic behavior of the compound of the present disclosure in dogs was studied, and its pharmacokinetic profile was evaluated.
The compound of Example 43.
Four dogs, with an equal number of males and females, provided by Weifang Shengnuo Laboratory Animal Breeding Co., Ltd (license: SCXK (Beijing) 2020-0009) and Beijing Institute of Xieerxin Biology Resource Co., Ltd (license: SCXK (Shandong) 20230001). The animals were fasted overnight and then intragastrically dosed.
A certain amount of the example compound was weighed out, and 5% DMSO+20% PG+20% PEG400+55% normal saline was added to prepare a […] colorless clear solution.
The administration dose was 2 mg/kg, and the administration volume was 10.0 mL/kg.
(§1) 0.5-mL blood samples were collected from a forelimb vein before administration and 0.25, 0.5, 1.0, 2.0, 4.0, 6.0, 8.0, 11.0, 24.0, 48.0, and 72 h after administration, placed into EDTA-K2 anticoagulation test tubes, and centrifuged at 10,000 rpm for 1 min (4° C.), and the plasma was separated within 1 h and stored with dry ice before analysis. The procedures from the blood collection to the centrifugation were performed under ice-bath conditions. Access to food was given 2 h after administration.
Determination of the plasma concentration of the test compound in dogs after the compound was administered at different concentrations: A 50-μL sample of the dog plasma collected at each time point after administration was taken, and 250 μL of acetonitrile containing an internal standard (labetalol, 1 μg/mL) was added. The mixture was vortexed and centrifuged at 3700 rpm for 10 min. 0.5 μL of the supernatant was taken for LC/MS/MS analysis.

[3] = Pharmacokinetic evaluation in SD rats (i.g.); assay type: in vivo; conditions: male, Sprague-Dawley (SD), rat, plasma, po, 50 mg/kg
Method: SD rats were used as test animals. After intragastric (i.g.) administration of the example compounds to SD rats, the plasma concentrations of the compounds at different time points were determined by the LC/MS/MS method. The pharmacokinetic behaviors of the compounds of the present disclosure in SD rats were studied, and their pharmacokinetic profiles were evaluated.
Compounds 16 and 32: Four male SD rats, provided by Vital River Laboratory Animal Technology Co., Ltd. The animals were fasted overnight and then intragastrically dosed.
Compound 38: Two male SD rats, provided by Zhejiang Vital River Laboratory Animal Technology Co., Ltd. The animals were fasted overnight and then intragastrically dosed.
Compounds 16 and 32: Certain amounts of the test compounds were weighed out, and 5% DMSO+5% tween 80+90% normal saline was added to prepare 0.2 mg/mL colorless clear solutions.
Compound 38: A certain amount of the test compound was weighed out, and 25% PEG400+75% (10% TPGS+1% HPMC K100LV) was added to prepare a 5 mg/mL colorless clear solution.
Compounds 16 and 32: The administration dose was 2 mg/kg, and the administration volume was 10.0 mL/kg.
Compound 38: The administration dose was 50 mg/kg, and the administration volume was 10.0 mL/kg.
as §1, with “0.2-mL” for “0.5-mL”, “the orbit” for “a forelimb vein”, “11.0,” for “11.0, 24.0, 48.0,”, “24.0” for “72”
Compounds 16 and 32: Determination of the plasma concentrations of the test compounds in SD rats after the compounds were administered at different concentrations: A 25-μL sample of the SD rat plasma collected at each time point after administration was taken, and 200 μL of acetonitrile containing an internal standard (verapamil, 100 ng/mL) was added. The mixture was vortexed and centrifuged at 3700 rpm for 10 min. 0.1 μL of the supernatant was taken for LC/MS/MS analysis.
Compound 38: Determination of the plasma concentration of the test compound in SD rats after the compound was administered at different concentrations: A 25-μL sample of the SD rat plasma collected at each time point after administration was taken, and 200 μL of acetonitrile containing an internal standard (dexamethasone, 100 ng/mL) was added. The mixture was vortexed and centrifuged at 4000 rpm for 15 min. 1 μL of the supernatant was taken for LC/MS/MS analysis.

[4] = Pharmacokinetic evaluation in CD-1 mice (i.g.); assay type: in vivo; conditions: male, mouse, plasma, po, 100 mg/kg
Method: CD-1 mice were used as test animals. After intragastric (i.g.) administration of the compound of the present disclosure to CD-1 mice, the plasma concentrations of the compound at different time points were determined by the LC/MS/MS method. The pharmacokinetic behavior of the compound of the present disclosure in CD-1 mice was studied, and its pharmacokinetic profile was evaluated.
Nine male CD-1 mice (3 mice per time point), provided by Vital River Laboratory Animal Technology Co., Ltd. (license: SCXK (Zhejiang) 2019-0001). The mice were intragastrically dosed.
A certain amount of the test compound was weighed out, and 25% PEG400+75% (10% TPGS+1% HPMC K100LV) was added to prepare a 10 mg/mL yellowish suspension.
The administration dose was 100 mg/kg, and the administration volume was 10 mL/kg.
as §1, with “The intragastric administration groups: 0.1-mL” for “0.5-mL”, “the orbit” for “a forelimb vein”, “11.0,” for “11.0, 24.0, 48.0,”, “24.0” for “72”, “at −80° C.” for “with dry ice”, “conditions.” for “conditions. Access to food was given 2 h after administration.”
Determination of the plasma concentration of the test compound in CD-1 mice after the compound was administered at different concentrations: A 20-μL sample of the CD-1 mouse plasma collected at each time point after administration was taken, and 200 μL of acetonitrile containing an internal standard (dexamethasone, 100 ng/mL) was added to each sample to precipitate protein. The mixture was vortexed for 5 min and centrifuged at 4000 rpm for 15 min. 40 μL of the supernatant was taken, and 120 μL of water was added. The mixture was vortexed for 5 min, and 0.5 μL of the mixture was taken for LC/MS/MS analysis.

[5] = read-out: Area under curve AUC0-t
[6] = read-out: Half-life T½ (converted)
[7] = read-out: Plasma concentration Cmax

Row | Compound | IC50 [1] | AUC(0-t) [2, 5] | CL/F ([2]; read-out: Clearance rate CL/F) | half-life [2, 6] | Cmax [2, 7] | AUC(0-t) [3, 5] | CL/F ([3]; read-out: Clearance rate CL/F) | half-life [3, 6] | Cmax [3, 7] | AUC(0-t) [4, 5] | CL/F ([4]; read-out: Clearance rate CL/F) | half-life [4, 6] | Cmax [4, 7]
1 | COc1c([C@H]2[C@H](C(=O)Nc3cc[n+]([O-])c(/C(N)=N/O)c3)O[C@@](C)(C(F)(F)F)[C@H]2C)ccc(F)c1F [Example 43, 4-((2R,3S,4S,5R)-3-(3,4-Difluoro-2-methoxyphenyl)-4,5-dimethyl-5-(trifluoromethyl)tetrahydrofuran-2-carboxamido)-2-((Z)—N′-hydroxycarbamimidoyl)pyridine 1-oxide] | 0.3 nM | 250 µg·h/mL | 0.128 mL/min/kg | 2070 min | 5680 ng/mL | – | – | – | – | – | – | – | –
2 | COc1c([C@H]2[C@H](C(=O)Nc3ccnc(C4(N)CC4)c3)O[C@@](C)(C(F)(F)F)[C@H]2C)ccc(F)c1F [Example 38, (2R,3S,4S,5R)—N-(2-(1-Aminocyclopropyl)pyridin-4-yl)-3-(3,4-difluoro-2-methoxyphenyl)-4,5-dimethyl-5-(trifluoromethyl)tetrahydrofuran-2-carboxamide] | 2.2 nM | – | – | – | – | 18400 ng·h/mL | 42 mL/min/kg | 350 min | 1440 ng/mL | 76700 ng·h/mL | 20.3 mL/min/kg | 348 min | 6280 ng/mL
